This note sets out measurements from patent US12612407B2, “Imidazo[2,1-f][1,2,4]triazin-4-amine derivatives as TLR7 agonist” (BEIGENE, LTD., priority 2020, dated 2026).

For one assay, the target named is T1, human TLR7 (Homo sapiens, UniProt Q9NYK1).
T1 construct: host or cells: HEK293 (HEK-Blue hTLR7)
T1 sequence (Q9NYK1 27-1049): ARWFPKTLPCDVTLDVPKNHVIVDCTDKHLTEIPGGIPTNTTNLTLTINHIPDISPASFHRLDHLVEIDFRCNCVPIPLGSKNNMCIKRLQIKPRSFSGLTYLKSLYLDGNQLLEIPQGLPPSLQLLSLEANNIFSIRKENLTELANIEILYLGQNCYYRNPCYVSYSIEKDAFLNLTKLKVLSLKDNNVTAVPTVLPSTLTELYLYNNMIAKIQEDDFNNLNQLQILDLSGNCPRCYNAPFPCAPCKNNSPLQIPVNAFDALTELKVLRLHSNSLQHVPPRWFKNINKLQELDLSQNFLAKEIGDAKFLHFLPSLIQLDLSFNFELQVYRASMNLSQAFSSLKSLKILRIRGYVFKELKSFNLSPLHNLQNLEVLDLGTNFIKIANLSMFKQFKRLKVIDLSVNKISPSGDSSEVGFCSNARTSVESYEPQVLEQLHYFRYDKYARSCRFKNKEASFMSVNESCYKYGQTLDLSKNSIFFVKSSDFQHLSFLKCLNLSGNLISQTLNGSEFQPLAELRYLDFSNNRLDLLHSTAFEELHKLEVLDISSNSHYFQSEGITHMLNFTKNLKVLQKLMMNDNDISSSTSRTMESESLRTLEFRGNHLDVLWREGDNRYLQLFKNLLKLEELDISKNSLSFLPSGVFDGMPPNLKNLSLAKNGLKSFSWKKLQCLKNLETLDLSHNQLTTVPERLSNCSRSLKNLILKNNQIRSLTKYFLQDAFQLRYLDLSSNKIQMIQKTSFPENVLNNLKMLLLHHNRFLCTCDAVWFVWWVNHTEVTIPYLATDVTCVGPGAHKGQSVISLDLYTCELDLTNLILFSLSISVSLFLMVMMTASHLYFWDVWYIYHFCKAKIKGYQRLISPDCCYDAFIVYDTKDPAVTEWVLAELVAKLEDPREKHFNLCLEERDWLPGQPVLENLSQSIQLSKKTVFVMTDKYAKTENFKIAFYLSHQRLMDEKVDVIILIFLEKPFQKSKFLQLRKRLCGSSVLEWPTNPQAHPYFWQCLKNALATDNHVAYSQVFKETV
The experiment in a line: TLR7 Stimulation Determined Using HEK-Blue Detection. Type of assay: cell-based. Conditions: HEK-Blue hTLR7 cells, 16 hr, percentages of maximum activation with Resiquimod, Table 1, B233-B247. The source says:
TLR7 Stimulation Determined Using HEK-Blue Detection
(§1) This assay was designed for studying the stimulation of human TLR7 protein in HEK-Blue hTLR7 tool cell line by monitoring the activation of NF-κB. HEK-Blue hTLR7 cells were obtained by co-transfection of the hTLR7 gene and an optimized secreted embryonic alkaline phosphatase (SEAP) reporter gene into HEK293 cells. The SEAP reporter gene was placed under the control of the IFN-β minimal promoter fused to five NF-κB and AP-1-binding sites. Stimulation with a TLR7 ligand activates NF-κB and AP-1 which induce the expression of SEAP. Levels of SEAP can be easily determined with HEK-Blue Detection, a cell culture medium that allows for real-time detection of SEAP. HEK-Blue Detection contains all the nutrients necessary for cell growth and a specific SEAP color substrate. The hydrolysis of the substrate by SEAP produces a purple/blue color that can be measured with a spectrophotometer.
When growing to 50-80% confluency, HEK-Blue hTLR7 cells were plated into 96-well plate (costar 3599) at a density of 40000 cells/well. Then compounds were added with serial dilutions over 10 points with a 0.04 nM-10 μM final concentration range in 0.1% DMSO/HEK-Blue Detection. The plates were then incubated for 16 hr at 37° C. in 5% CO2 and vortex for 30 s before measurement. The optical density at 620-655 nm was read on BMG PHERAstar FSX instrument. The EC50 for each compound was determined by calculating the percentages of the maximum activation identified with Resiquimod.

A further assay addresses T2, human TLR 8 protein (Homo sapiens, UniProt Q9NR97).
T2 construct: expressed in transfected cells; host or cells: HEK293 (HEK-Blue hTLR8)
T2 sequence (Q9NR97 27-1041): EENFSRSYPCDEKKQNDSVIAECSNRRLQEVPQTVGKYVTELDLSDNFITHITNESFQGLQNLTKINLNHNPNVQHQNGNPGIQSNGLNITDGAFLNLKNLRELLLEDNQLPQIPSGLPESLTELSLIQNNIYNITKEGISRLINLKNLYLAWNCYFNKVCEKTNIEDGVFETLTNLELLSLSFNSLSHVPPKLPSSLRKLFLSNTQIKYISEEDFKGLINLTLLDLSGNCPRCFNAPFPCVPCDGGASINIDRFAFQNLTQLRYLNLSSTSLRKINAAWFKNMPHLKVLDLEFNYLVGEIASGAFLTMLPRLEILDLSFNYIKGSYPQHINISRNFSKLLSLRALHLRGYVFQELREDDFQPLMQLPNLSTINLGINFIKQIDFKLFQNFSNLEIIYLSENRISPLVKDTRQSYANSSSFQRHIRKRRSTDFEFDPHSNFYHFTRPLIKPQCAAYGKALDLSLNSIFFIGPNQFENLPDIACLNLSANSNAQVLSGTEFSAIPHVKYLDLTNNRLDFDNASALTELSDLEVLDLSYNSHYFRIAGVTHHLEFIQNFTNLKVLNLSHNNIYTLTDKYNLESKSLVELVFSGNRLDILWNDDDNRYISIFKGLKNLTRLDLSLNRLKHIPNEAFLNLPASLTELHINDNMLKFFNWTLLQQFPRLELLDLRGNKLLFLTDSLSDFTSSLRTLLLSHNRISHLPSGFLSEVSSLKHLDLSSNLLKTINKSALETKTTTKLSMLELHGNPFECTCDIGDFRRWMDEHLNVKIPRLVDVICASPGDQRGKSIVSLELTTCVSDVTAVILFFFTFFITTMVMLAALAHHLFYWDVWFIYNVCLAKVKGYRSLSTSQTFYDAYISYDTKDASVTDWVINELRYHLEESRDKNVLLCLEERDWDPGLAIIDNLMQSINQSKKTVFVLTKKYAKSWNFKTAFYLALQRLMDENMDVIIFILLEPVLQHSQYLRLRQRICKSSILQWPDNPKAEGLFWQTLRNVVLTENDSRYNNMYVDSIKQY
The experiment in a line: TLR8 Stimulation determined using HEK-Blue Detection. In kind it is cell-based. Conditions: HEK-Blue hTLR8 cells, 16 hr, percentages of maximum activation with Resiquimod or Motolimod, Table 3.
Source text: TLR8 Stimulation determined using HEK-Blue Detection
as §1, with “TLR 8” for “TLR7”, “hTLR8” for “hTLR7”
When growing to 50-80% confluency, HEK-Blue hTLR7/8 cells were plated into 96-well plate (costar 3599) at a density of 40000 cells/well. Then compounds were added with serial dilutions over 10 points with a 1 nM-10 uM final concentration range in 0.1% DMSO/HEK-Blue Detection. The plates were then incubated for 16 hr at 37° C. in 5% CO2. The optical density at 620-655 nm was read on BMG PHERAstar FSX instrument. The EC50 for each compound was determined by calculating the percentages of the maximum activation identified with Resiquimod or Motolimod.

Each structure is given as a SMILES string.

The term EC50 denotes the concentration at which the effect is half-maximal. Higher therefore signals lower potency in that assay.

For `CCC[C@H](C)Nc1nc(N)c2ncc(Cc3cnc(N4CCN[C@@H](CC#N)C4)c(C)c3)n2n1` [Compound B233, 2-((S)-4-(5-((4-amino-2-(((S)-pentan-2-yl)amino)imidazo[2,1-f][1,2,4]triazin-7-yl)methyl)-3-methylpyridin-2-yl)piperazin-2-yl)acetonitrile], the EC50 at human TLR7 is 18.4 nM; on human TLR 8 protein, more than 10000 nM.
In the same order, the values of `CCCC(C)Oc1nc(N)c2ncc(Cc3cnc(N4CCC(CNCC(C)C)CC4)c(C)c3)n2n1` (stereo not shown) [Compound B234, 7-((6-(4-((isobutylamino)methyl)piperidin-1-yl)-5-methylpyridin-3-yl)methyl)-2-(pentan-2-yloxy)imidazo[2,1-f][1,2,4]triazin-4-amine] are 5.3 nM and 451 nM.
On to `CCCC(CO)Oc1nc(N)c2ncc(Cc3cnc(N4CCC(CNC)CC4)c(C)c3)n2n1` (stereo not shown) [Compound B235, 2-((4-amino-7-((5-methyl-6-(4-((methylamino)methyl)piperidin-1-yl)pyridin-3-yl)methyl)imidazo[2,1-f][1,2,4]triazin-2-yl)oxy)pentan-1-ol], for which the figures for the EC50 at human TLR7 and at human TLR 8 protein were 63 nM and 3630 nM, respectively.
Take `CCCC(O)COc1nc(N)c2ncc(Cc3cnc(N4CCC(CNC)CC4)c(C)c3)n2n1` (stereo not shown) [Compound B236, 1-((4-amino-7-((5-methyl-6-(4-((methylamino)methyl)piperidin-1-yl)pyridin-3-yl)methyl)imidazo[2,1-f][1,2,4]triazin-2-yl)oxy)pentan-2-ol]: the EC50 was 648 nM on human TLR7 and more than 10000 nM at human TLR 8 protein.
For the molecule `CCCC(C)Oc1nc(N)c2ncc(Cc3ccc(C4CCNCC4)nc3F)n2n1` (stereo not shown) [Compound B238, 7-((2-fluoro-6-(piperidin-4-yl)pyridin-3-yl)methyl)-2-(pentan-2-yloxy)imidazo[2,1-f][1,2,4]triazin-4-amine], the EC50 on human TLR7 came to 6.7 nM; at human TLR 8 protein it was 169 nM.
For `CCC[C@H](C)Oc1nc(N)c2ncc(Cc3ccc(C4CCNCC4)nc3F)n2n1` [Compound B239, (S)-7-((2-fluoro-6-(piperidin-4-yl)pyridin-3-yl)methyl)-2-(pentan-2-yloxy)imidazo[2,1-f][1,2,4]triazin-4-amine], the concentration for a half-maximal effect (EC50) is 3.3 nM at human TLR7 and 122 nM at human TLR 8 protein.
`CCC[C@H](C)Nc1nc(N)c2ncc(Cc3cnc(C4CCNCC4)c(C)c3)n2n1` [Compound B240, (S)-7-((5-methyl-6-(piperidin-4-yl)pyridin-3-yl)methyl)-N2-(pentan-2-yl)imidazo[2,1-f][1,2,4]triazine-2,4-diamine]: the figures for the EC50 at human TLR7 and on human TLR 8 protein were 1 nM and 1510 nM, respectively.
As for `CCC[C@H](C)Oc1nc(N)c2ncc(Cc3cnc(N4CCNCC4)c(OC)c3)n2n1` [Compound B241, (S)-7-((5-methoxy-6-(piperazin-1-yl)pyridin-3-yl)methyl)-2-(pentan-2-yloxy)imidazo[2,1-f][1,2,4]triazin-4-amine], the EC50 at human TLR7 is 5.5 nM; on human TLR 8 protein, 445 nM.
Consider `CCCC(CCO)Oc1nc(N)c2ncc(Cc3ccc(C4CCNCC4)nc3F)n2n1` (stereo not shown) [Compound B242, 3-((4-amino-7-((2-fluoro-6-(piperidin-4-yl)pyridin-3 yl)methyl)imidazo[2,1-f][1,2,4]triazin-2-yl)oxy)hexan-1-ol], for which the EC50 at human TLR7 was 9.8 nM; on human TLR 8 protein, 74 nM.
For the molecule `CCC[C@H](C)Oc1nc(N)c2ncc(Cc3ccn(C4CCNCC4)c(=O)c3)n2n1` [Compound B243, (S)-4-((4-amino-2-(pentan-2-yloxy)imidazo[2,1-f][1,2,4]triazin-7-yl)methyl)-1-(piperidin-4-yl)pyridin-2(1H)-one], the values for the EC50 at human TLR7 and at human TLR 8 protein were 35 nM and 365 nM, respectively.
In the same order, the values of `CCC[C@H](C)Nc1nc(N)c2ncc(Cc3cnc(N4CCN(C(=O)CN(C)CCNC)CC4)c(C)c3)n2n1` [Compound B244, (S)-1-(4-(5-((4-amino-2-(pentan-2-ylamino)imidazo[2,1-f][1,2,4]triazin-7-yl)methyl)-3-methylpyridin-2-yl)piperazin-1-yl)-2-(methyl(2-(methylamino)ethyl)amino)ethan-1-one] are 12 nM and more than 10000 nM.
